Results: publication PMC7562955 (Nature Communications, 2020)
“And” between values parts separate entries of the source, which are not always exact repeats. Identical values can stand only once.

Key:
TLR1/2 = target: T1, TLR1/2 (Homo sapiens, UniProt O60603+Q15399); assay: TNF-α production by human PBMC stimulated by TLR1/2 ligand Pam3CSK4 (ELISA); type: cell-based; details: for TLR2-dependent TNF-α production: 2.5 μM; for Mean TNF-α / TNF-α: activator PAM3CSK4, antagonist 2.5 μM; for Mean TNF-α: n = 3; for TNF-α: single replicate
T1 construct: Human Peripheral Blood Mononuclear cells (hPBMCs) were collected from healthy adult donors; endogenous in cells; host or cells: primary human PBMCs
T1 sequence (Q15399 25-786): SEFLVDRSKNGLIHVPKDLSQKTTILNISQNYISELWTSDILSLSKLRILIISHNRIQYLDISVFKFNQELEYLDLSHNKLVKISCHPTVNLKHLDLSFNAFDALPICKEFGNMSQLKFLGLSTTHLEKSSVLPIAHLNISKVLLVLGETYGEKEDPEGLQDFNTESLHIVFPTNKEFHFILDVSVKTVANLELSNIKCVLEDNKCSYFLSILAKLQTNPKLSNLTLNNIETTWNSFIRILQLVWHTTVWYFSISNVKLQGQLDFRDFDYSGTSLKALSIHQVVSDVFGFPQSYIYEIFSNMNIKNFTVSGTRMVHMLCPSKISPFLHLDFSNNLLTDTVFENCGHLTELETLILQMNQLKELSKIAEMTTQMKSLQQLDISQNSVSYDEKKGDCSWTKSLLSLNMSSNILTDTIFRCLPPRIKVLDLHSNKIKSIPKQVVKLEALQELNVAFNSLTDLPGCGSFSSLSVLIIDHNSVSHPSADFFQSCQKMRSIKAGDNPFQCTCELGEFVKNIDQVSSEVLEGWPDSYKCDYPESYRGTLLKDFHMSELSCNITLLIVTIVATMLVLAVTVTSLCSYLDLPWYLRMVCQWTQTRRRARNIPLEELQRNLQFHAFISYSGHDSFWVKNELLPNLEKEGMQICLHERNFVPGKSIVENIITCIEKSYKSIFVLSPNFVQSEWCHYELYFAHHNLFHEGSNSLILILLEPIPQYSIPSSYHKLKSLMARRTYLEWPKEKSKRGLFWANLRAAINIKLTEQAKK
T1 sequence (O60603 19-784 limits assumed): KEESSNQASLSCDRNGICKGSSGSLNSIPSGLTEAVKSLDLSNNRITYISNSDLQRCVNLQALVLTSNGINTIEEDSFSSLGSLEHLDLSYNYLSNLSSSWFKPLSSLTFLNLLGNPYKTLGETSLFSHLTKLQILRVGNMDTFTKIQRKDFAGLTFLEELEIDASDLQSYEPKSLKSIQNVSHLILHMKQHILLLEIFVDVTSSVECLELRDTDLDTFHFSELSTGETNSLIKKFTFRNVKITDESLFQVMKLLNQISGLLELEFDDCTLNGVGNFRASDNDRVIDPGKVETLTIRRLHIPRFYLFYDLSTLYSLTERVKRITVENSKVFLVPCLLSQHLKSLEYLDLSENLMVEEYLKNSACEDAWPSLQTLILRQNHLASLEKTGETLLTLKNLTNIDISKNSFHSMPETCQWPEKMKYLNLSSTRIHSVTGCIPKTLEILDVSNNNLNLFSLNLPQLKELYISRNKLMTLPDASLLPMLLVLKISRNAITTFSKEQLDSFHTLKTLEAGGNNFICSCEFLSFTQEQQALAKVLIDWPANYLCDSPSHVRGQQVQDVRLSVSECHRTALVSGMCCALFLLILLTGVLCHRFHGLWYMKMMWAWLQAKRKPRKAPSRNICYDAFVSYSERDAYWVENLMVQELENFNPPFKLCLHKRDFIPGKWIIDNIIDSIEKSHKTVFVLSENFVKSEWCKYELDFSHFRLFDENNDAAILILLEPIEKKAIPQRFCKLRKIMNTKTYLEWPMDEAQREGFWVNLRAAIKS
Protocol: Human Peripheral Blood Mononuclear cells (hPBMCs) were collected from healthy adult donors. hPBMCs were cultured in round-bottom 96-well plates (BD Falcon, Durham, NC, USA) with a density of 5 × 10^5 cells/well. Plated cells were pretreated with DMSO or 2.5 μM inhibitors for 3 h and then stimulated by indicated ligands, such as R848 or TLR1/2 specific ligand Pam3CSK4 (Invivogen, HongKong, China), for 20 h in […] of RPMI 1640 medium (Gibco, Paisley, UK) supplemented with 10% FBS, Penicillin-Streptomycin-Glutamine (Gibco, Paisley, UK), 50 μM 2-ME medium at 37 °C in the presence of 5% CO2. Supernatants were collected to measure secreted cytokines by ELISA. Concentration of human IFN-α and TNF-α in the supernatants was measured with Verikine Human IFN-α Multi-Subtype Serum ELISA Kit (PBL Assay Science, Piscataway, NJ, USA) and Human TNF-α Uncoated ELISA (ThermoFisher Scientific, Carlsbad, CA, USA), respectively. This study was approved by the Research Ethics Committee of IMSUT (accession number: 30-100-B20190419).

mouse TLR9 = target: T2, mouse TLR9 (Mus musculus, UniProt Q9EQU3); assay: Mouse TLR9 reporter gene assay (NF-kB luciferase, HEK293); type: cell-based; details: CpG1826 100 nM
T2 construct: host or cells: HEK293 (293-mTLR9)
T2 sequence (Q9EQU3 26-1032): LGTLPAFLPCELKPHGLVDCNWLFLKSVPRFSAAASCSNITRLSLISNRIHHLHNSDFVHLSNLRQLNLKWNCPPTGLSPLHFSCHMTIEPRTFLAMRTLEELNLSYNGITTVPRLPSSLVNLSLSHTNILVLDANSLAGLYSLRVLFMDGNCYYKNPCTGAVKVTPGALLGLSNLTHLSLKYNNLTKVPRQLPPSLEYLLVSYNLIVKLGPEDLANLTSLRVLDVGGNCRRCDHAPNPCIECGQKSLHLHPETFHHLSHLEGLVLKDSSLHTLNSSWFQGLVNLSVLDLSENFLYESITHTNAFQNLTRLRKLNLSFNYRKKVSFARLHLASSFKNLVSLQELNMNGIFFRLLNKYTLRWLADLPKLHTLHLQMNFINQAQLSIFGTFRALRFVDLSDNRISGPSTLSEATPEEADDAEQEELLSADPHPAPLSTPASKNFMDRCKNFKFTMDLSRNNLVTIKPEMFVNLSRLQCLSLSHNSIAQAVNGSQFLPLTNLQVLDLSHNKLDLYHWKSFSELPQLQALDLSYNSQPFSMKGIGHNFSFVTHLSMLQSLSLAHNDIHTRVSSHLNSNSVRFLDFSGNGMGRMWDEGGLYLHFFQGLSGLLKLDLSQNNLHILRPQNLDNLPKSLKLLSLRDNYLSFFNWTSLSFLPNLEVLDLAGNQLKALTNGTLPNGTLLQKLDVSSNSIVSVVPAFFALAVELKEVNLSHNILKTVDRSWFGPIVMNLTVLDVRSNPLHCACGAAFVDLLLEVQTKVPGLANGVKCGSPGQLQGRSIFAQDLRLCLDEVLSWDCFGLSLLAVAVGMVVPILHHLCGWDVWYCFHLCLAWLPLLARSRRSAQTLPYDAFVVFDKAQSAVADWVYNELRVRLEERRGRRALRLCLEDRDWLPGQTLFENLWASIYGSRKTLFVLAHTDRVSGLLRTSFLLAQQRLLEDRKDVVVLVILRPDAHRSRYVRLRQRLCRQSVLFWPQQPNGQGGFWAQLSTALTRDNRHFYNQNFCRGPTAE
Protocol: Compounds were dissolved in dimethyl sulfoxide. The day before transfection, mouse TLR7 genestably-expressing HE293 cell line (293XL-mTLR7 cell, InvivoGen, USA) and mouse TLR9 genestably-expressing HEK293 cell line (293-mTLR9 cell, InvivoGen) were seeded in collagen-coated 6-well plate (AGC techno glass) at 3 × 10^5 cells/well in DMEM (GIBCO) with 10% fetal bovine serum (GIBCO), and 10 μg ml^−1 Blastcidin S HCl (GIBCO) and incubated at 37 °C in 5% CO2. The plates were incubated over-night and then cotransfected with 1 μg (mouse TLR7) or 0.3 μg (mouse TLR9) of pNF-kB-Luciferase reporter in a 10:1 ratio with 4 μl of FuGene6 transfection reagent (Promega corporation, USA) following the manufacturer’s instructions. The plates were incubated 24 h. The cells re-seeded into 96-well plate (AGC techno glass) at 2 × 10^4 cells/well in DMEM (GIBCO) with 10% fetal bovine serum (GIBCO), and 10 μg ml^−1 Blastcidin S HCl (GIBCO) and then inhibition with various concentrations of compound. HCQ (mouse TLR7/9, Acros Organics, United Kingdom) was used as positive control. After 30 min, R848 (mouse TLR7/8 ligand) or CpG1826 (mouse TLR9 ligand, Hokkaido System Science Co., Ltd.) added to each well, wherein each final concentration were adjusted to 200 nM R848 (mouse TLR7) or 100 nM CpG1826 (mouse TLR9). The plates were then incubated an additional 6 h at 37 °C in 5% CO2, and then the luciferase activity was measured as activation of mouse TLR7 and 9. The luciferase activity was evaluated as follows: Bright-GloTM Luciferase Assay System (Promega) was added to the incubated sample (100 μl/well); after 2 min, the luminescence intensity of each sample was measured with a luminometer (Envision).

| Structure (SMILES) | TLR2-dependent TNF-α production (TLR1/2) | Mean TNF-α (TLR1/2) | TNF-α (TLR1/2) | mouse TLR9 activity, reporter signal (mouse TLR9; compound 0.0001 nM (as headed)) | mouse TLR9 activity, reporter signal (mouse TLR9; compound 0.001 nM (as headed)) | mouse TLR9 activity, reporter signal (mouse TLR9; compound 0.003 nM (as headed)) | mouse TLR9 activity, reporter signal (mouse TLR9; compound 0.01 nM (as headed)) | mouse TLR9 activity, reporter signal (mouse TLR9; compound 0.03 nM (as headed)) | mouse TLR9 activity, reporter signal (mouse TLR9; compound 0.1 nM (as headed)) | mouse TLR9 activity, reporter signal (mouse TLR9; compound 0.3 nM (as headed)) | mouse TLR9 activity, reporter signal (mouse TLR9; compound 1 nM (as headed)) | mouse TLR9 activity, reporter signal (mouse TLR9; compound 3 nM (as headed)) | mouse TLR9 activity, reporter signal (mouse TLR9; compound 10 nM (as headed)) | mouse TLR9 activity, reporter signal (mouse TLR9; compound 30 nM (as headed)) | mouse TLR9 activity, reporter signal (mouse TLR9; compound 100 nM (as headed)) |
| --- | --- | --- | --- | --- | --- | --- | --- | --- | --- | --- | --- | --- | --- | --- | --- |
| CCOc1nc(C)c2nc(-c3cncc(F)c3)n(Cc3ccc(CN4C[C@@H]5C[C@H]4CN5C)cc3)c2n1 [Cpd-7] | neither Cpd-6 nor Cpd-7 blocked | 2407.5 pg/mL | 2596.39 pg/mL and 2051.11 pg/mL and 2574.99 pg/mL | 670258 | 769686 | 682550 | 681778 | 778720 | 762582 | 758536 | 750674 | 718794 | 519616 | 67454 | 0 |
| CCN(CCO)CCCC(C)Nc1ccnc2cc(Cl)ccc12 (stereo not drawn) [HCQ, hydroxychloroquine, reference compound] | – | – | – | 670258 | 691508 | 691964 | 727784 | 642512 | 455236 | 212962 | 48988 | 7184 | 3474 | 3862 | 0 |
| CCOc1nc(N)c2nc(-c3cncc(F)c3)n(Cc3ccc(CN4C[C@@H]5C[C@H]4CN5C)cc3)c2n1 [Cpd-6] | neither Cpd-6 nor Cpd-7 blocked | 2207.35 pg/mL | 2553.64 pg/mL and 2237.72 pg/mL and 1830.68 pg/mL | – | – | – | – | – | – | – | – | – | – | – | – |
